Data taken from patent publication US4053635A, “Substituted amides of 3-methyl-4-phenyl-3-butenoic acid, with a high hypolipemizing activity” (Istituto Biochimico Italiano di Loredana Lorenzini S.a.s., priority 1974, dated 1977).

How the values were obtained:
[1] = hyperlipemia from diet (Table III); assay type: in vivo, Sprague-Dawley male rat; conditions: 200 mg/kg/day per os; for Hepatic Cholesterol ± SE: hyperlipidic diet 4 weeks (diet alone 16.4±0.8); for Hepatic triglycerides ± SE: hyperlipidic diet 4 weeks (diet alone 56.4+3.8); for Triglyceridemia ± ES: hyperlipidic diet 4 weeks (diet alone 117.3±17.7); for Cholesterolemia ± SE: hyperlipidic diet 4 weeks (diet alone 129.9±9.3)
Description: °In parentheses, significativity towards the set treated only with
*Animal: Sprague-Dawley male rat of the initial weight of 120 g (in
parentheses the N. of animals).
Treatment: Hyperlipemia derived from hyperlipidic diet according to Nath N. et al., Nutrition J. 67, 289, 1959; the diet has been administered for 4 weeks. Each drug has been administered at the dose of 200/mg/kg/day per os for 4 weeks.

[2] = hypertriglyceridemia from ethanol (Table IV); assay type: in vivo, Sprague-Dawley male rat; conditions: 300 mg/kg daily, gastric intubation; ethanol twice a day, 4 days (controls 74.20±3.70, ethanol 135.80±13.30)
Method: | *Animal: Sprague-Dawley male rat of the average weight of 150 g. | Treatment: 0.31 ml. ethanol in 4 ml. water twice a day (in parenthesis, | the N. of animals) for 4 days. The substances have been provided by | gastric intubation at the daily dose of 300 mg/kg.

[3] = former works (U.S. Pat. No. 3,231,469; Canonica et al.); cited from earlier work
[4] = hypertriglyceridemia from Fructose (Table II); assay type: in vivo, Sprague-Dawley male rat; conditions: 200 mg/kg day by gastric probing, 5 days
Method: *Animal: Sprague-Dawley male rat, 150 g.; 6 rat sets. Treatment accordin
to E. A. Nikkila et al., Life sci.5,89,1966; substances administered at
the dose of 200 mg/kg day by gastric probing in two daily administrations

in vivo = conditions: rat, po, read-out: LD 50 per os in the rat
[5] = experiments of subchronic toxicity; assay type: in vivo; conditions: per os, 150 mg/kg/day and 300 mg/kg/day, 3 or 6 months
Method: mg/kg/day. In experiments of subchronic toxicity, the diethylamide of
the doses of 150 mg/kg/day and of 300 mg/kg/day for 3 or 6 months: the […]

[6] = hyperlipemia from ethanol (Table V); assay type: in vivo, Sprague-Dawley male rat; conditions: gastric intubation; for cholesterolemia: ethyl alcohol 10% 1 week (controls 85±6, ethanol 90±4); for Triglyceridemia ±SE: ethyl alcohol 10% 1 week (controls 87±14, ethanol 238±44)
Method: Sprague-Dawley male rat of the average weight of 150 g. ethyl alcohol 10%
in water for 1 week (in parenthesis, the N. of animals). The substances
have been administered by gastric intubation at the dose of 200 and 300
mg/kg/day. In experiments of subchronic toxicity, the diethylamide of […]

[7] = toxicity in the test animal; conditions: in vivo
[8] = 1st experiment (controls 41.7±1.7, fructose 62.9±5.5)
[9] = 2nd experiment (controls 45.6±4.7, fructose 94.0±12.1)
[10] = 3rd experiment (controls 77.1±12.1, fructose 155.2±19.2)
[11] = 4th experiment (controls 45.3±4.5, fructose 87.4±14.4)

Structure (SMILES)	Hepatic Cholesterol ± SE [1]	Hepatic triglycerides ± SE [1]	Triglyceridemia ± ES [1]	Cholesterolemia ± SE [1]	Triglyceridemia ±SE [2]	Triglyceridemia ±SE [4, 8]	Triglyceridemia ±SE [4, 9]	Triglyceridemia ±SE [4, 10]	Triglyceridemia ±SE [4, 11]	LD50 (in vivo)	other results
C/C(=C\c1ccccc1)CC(=O)O [I, 3-methyl-4-phenyl-3-butenoic acid]	20.2±0.9 mg/g fresh tissue	37.7±5.6 mg/g fresh tissue	91.5±13.6 mg/100 ml	142.4±7.7 mg/100 ml	275.11±31.63 mg/100 ml	42.8±3.7 mg/100 ml	40.8±4.5 mg/100 ml	100.8±13.8 mg/100 ml	57.6±2.6 mg/100 ml	–	hypolipemic characteristics [3]: interesting hypolipemic characteristics
C/C(=C\c1ccccc1)CC(=O)NCCO [IIIa, Monoethanolamide of 3-methyl-4-phenyl-3-butenoic acid]	–	–	–	–	–	62.9±6.4 mg/100 ml	–	–	–	–	–
C/C(=C\c1ccccc1)CC(=O)NC1CCCCC1 [IIIb, Monocyclohexylamide of 3-methyl-4-phenyl-3-butenoic acid]	22.1±1.1 mg/g fresh tissue	37.5±3.0 mg/g fresh tissue	81.5±7.9 mg/100 ml	135.7±11.6 mg/100 ml	–	–	59.1±7.5 mg/100 ml	–	–	3000 mg/kg	–
C/C(=C\c1ccccc1)CC(=O)N(CCO)CCO [IIIc, Diethanolamide of 3-methyl-4-phenyl-3-butenoic acid]	–	–	–	–	–	–	69.6±3.9 mg/100 ml	–	–	1500 mg/kg	–
CCN(CC)C(=O)C/C(C)=C/c1ccccc1 [IIId, Diethylamide of 3-methyl-4-phenyl-3-butenoic acid]	19.4±0.7 mg/g fresh tissue	25.9±3.8 mg/g fresh tissue	77.4±7.5 mg/100 ml	124.9±4.6 mg/100 ml	90.0±14.83 mg/100 ml	–	–	87.1±13.4 mg/100 ml	–	–	tolerability in subchronic toxicity [5]: fairly well tolerated; cholesterolemia ([6]; 200 mg/kg/day): 77±3 mg/100 ml; Triglyceridemia ±SE ([6]; 200 mg/kg/day): 169±20 mg/100 ml; cholesterolemia ([6]; 300 mg/kg/day): 81±3 mg/100 ml; Triglyceridemia ±SE ([6]; 300 mg/kg/day): 117±20 mg/100 ml; toxicity in the test animal [7]: low toxicity
C/C(=C\c1ccccc1)CC(=O)N1CCOCC1 [IIIe, Morpholide of 3-methyl-4-phenyl-3-butenoic acid]	–	–	–	–	–	–	–	–	61.1±5.1 mg/100 ml	1000 mg/kg	–
C/C(=C\c1ccccc1)CC(N)=O [II]	–	–	–	–	–	–	–	–	–	–	hypolipemic characteristics [3]: interesting hypolipemic characteristics
CCOC(=O)C(C)(C)Oc1ccc(Cl)cc1 [chlofibrate, ethyl ester of 2-(p-chlorophenoxy)-2-methyl propanoic acid, reference compound]	18.5±1 mg/g fresh tissue	30.3±2.5 mg/g fresh tissue	60.0±4.3 mg/100 ml	138.8±10.7 mg/100 ml	121.50±12.26 mg/100 ml	42.2±5.4 mg/100 ml	48.9±2.4 mg/100 ml	62.9±7.2 mg/100 ml	59.1±3.6 mg/100 ml	–	cholesterolemia ([6]; 200 mg/kg/day): 70±3 mg/100 ml; Triglyceridemia ±SE ([6]; 200 mg/kg/day): 183±29 mg/100 ml
